Laboratory results: patent US6352989B1, “Nitrogenous heterocyclic derivatives and medicine thereof” (Eisai Co., Ltd., priority 1998, dated 2002)

| SMILES | melting point [°C] |
| --- | --- |
| CCCN(Cc1ccccc1)c1cccc(-c2nc(NC)nc3cc(OC)c(OC)cc23)c1 [Example 41, 4-[3-(N-benzyl-N-propylamino)phenyl]-6,7-dimethoxy-2-methylaminoquinazoline] | 75 to 77 |
| CNc1nc(-c2cccc(N(C)C(=O)c3ccccc3)c2)c2cc(OC)c(OC)cc2n1 [Example 42, 4-[3-(N-benzoyl-N-methylamino)phenyl]-6,7-dimethoxy-2-methylaminoquinazoline] | 198 to 200 |
| CNc1nc(-c2cccc(-n3cccc3)c2)c2cc(OC)c(OC)cc2n1 [Example 43, 6,7-Dimethoxy-2-methylamino-4-[3-(1-pyrrolyl)phenyl]quinazoline] | 199 to 201 |
| CNc1nc(-c2cccc(-c3ccc(C)c(C)c3)c2)c2cc(OC)c(OC)cc2n1 [Example 48, 6,7-Dimethoxy-4-(3′,4′-dimethyl-3-biphenylyl)-2-methylaminoquinazoline] | 149 to 151 |
| CNc1nc(-c2cccc(-c3ccc4nccn4c3)c2)c2cc(OC)c(OC)cc2n1 [Example 50, 6,7-Dimethoxy-4-[3-(imidazo[1.2-a]pyridine-6-yl)phenyl]-2-methylaminoquinazoline] | 237 to 239 |
| CNc1nc(-c2cccc(CCc3ccccc3)c2)c2cc(OC)c(OC)cc2n1 [Example 66, 6,7-Dimethoxy-2-methylamino-4-[3-(2-phenylethyl)phenyl]quinazoline] | 95 to 97 |
| CNc1nc(-c2cccc(C#Cc3cccnc3)c2)c2cc(OC)c(OC)cc2n1 [Example 67, 6,7-Dimethoxy-2-methylamino-4-[3-[2-(3-pyridyl)ethynyl]phenyl]quinazoline] | 103 to 105 |
| CNc1ccc(C#Cc2cccc(-c3nc(NC)nc4cc(OC)c(OC)cc34)c2)cn1 [Example 68, 6,7-Dimethoxy-2-methylamino-4-[3-[2-(6-methylamino-3-pyridyl)ethynyl]phenyl]quinazoline] | 136 to 138 |
| CNc1nc(-c2cccc(/C=C/c3ccccc3)c2)c2cc(OC)c(OC)cc2n1 [Example 69, 6,7-Dimethoxy-2-methylamino-4-[3-(2-phenylethenyl)phenyl]quinazoline] | 110 to 112 |
| CNc1nc(-c2cccc(C(=O)Nc3ccccc3)c2)c2cc(OC)c(OC)cc2n1 [Example 70, 6,7-Dimethoxy-2-methylamino-4-(3-phenylcarbamoylphenyl)quinazoline] | 242 to 244 |
| CNc1nc(-c2cccc(C(=O)Nc3cccnc3)c2)c2cc(OC)c(OC)cc2n1 [Example 71, 6,7-Dimethoxy-2-methylamino-4-[3-(3-pyridyl)carbamoylphenyl]quinazoline] | 238 to 240 |
| CNc1nc(-c2cncc(C#Cc3cccnc3)c2)c2cc(OC)c(OC)cc2n1 [Example 78, 6,7-Dimethoxy-2-methylamino-4-[5-[2-(3-pyridyl)ethynyl]-3-pyridyl]quinazoline] | 208 to 211 |
| CNc1ccc(C#Cc2cncc(-c3nc(NC)nc4cc(OC)c(OC)cc34)c2)cn1 [Example 79, 6,7-Dimethoxy-2-methylamino-4-[5-[2-(6-methylamino-3-pyridyl)ethynyl]-3-pyridyl]quinazoline] | 160 to 162 |
| CNc1nc(-c2cccc(NC(=O)c3ccccc3)c2)c2cc(OCc3ccccc3)c(OC)cc2n1 [Example 81, 4-(3-Benzoylaminophenyl)-6-benzyloxy-7-methoxy-2-methylaminoquinazoline] | 204 to 206 |
| CNc1nc(-c2cccc(NC(=O)c3ccccc3)c2)c2cc(O)c(OC)cc2n1 [Example 82, 4-(3-Benzoylaminophenyl)-6-hydroxy-7-methoxy-2-methylaminoquinazoline] | 145 to 147 |

More lines, now with the values ahead:

| melting point [°C] | SMILES |
| --- | --- |
| 183 to 185 | CNc1nc(-c2cccc(-c3ccccc3)c2)c2cc(OC)c(OC)cc2n1 [Example 46, 4-(3-Biphenylyl)-6,7-dimethoxy-2-methylaminoquinazoline] |
| 186 to 188 | CNc1nc(-c2cccc(-c3cccnc3)c2)c2cc(OC)c(OC)cc2n1 [Example 47, 6,7-Dimethoxy-2-methylamino-4-[3-(3-pyridyl)phenyl]quinazoline] |
| 163 to 165 | CNc1nc(-c2cccc(-c3cccc([S+](C)[O-])c3)c2)c2cc(OC)c(OC)cc2n1 (centres unmarked) [Example 55, 6,7-Dimethoxy-2-methylamino-4-(3-methylsulfinyl-3-biphenylyl)quinazoline] |
| 225 to 227 | CNc1nc(-c2cccc(-c3cncc(OC)c3)c2)c2cc(OC)c(OC)cc2n1 [Example 57, 6,7-Dimethoxy-4-[3-(5-methoxy-3-pyridyl)phenyl]-2-methylaminoquinazoline] |
| 208 to 210 | CNc1nc(-c2cccc(-c3cncc([S+](C)[O-])c3)c2)c2cc(OC)c(OC)cc2n1 (centres unmarked) [Example 59, 6,7-Dimethoxy-2-methylamino-4-[3-(5-methylsulfinyl-3-pyridyl)phenyl]quinazoline] |
| 116 to 118 | CNc1nc(-c2cccc(OCc3ccccc3)c2)c2cc(OC)c(OC)cc2n1 [Example 72, 4-(3-Benzyloxyphenyl)-6,7-dimethoxy-2-methylaminoquinazoline] |
| 157 to 159 | CNc1nc(-c2cccc(Oc3ccccc3)c2)c2cc(OC)c(OC)cc2n1 [Example 73, 6,7-Dimethoxy-2-methylamino-4-(3-phenoxylphenyl)quinazoline] |
| 201 to 203 | CNc1nc(-c2ccc(-c3ccccc3)s2)c2cc(OC)c(OC)cc2n1 [Example 74, 6,7-Dimethoxy-2-methylamino-4-(5-phenyl-2-thienyl)quinazoline] |
| 177 to 179 | CNc1nc(-c2cncc(-c3ccccc3)c2)c2cc(OC)c(OC)cc2n1 [Example 75, 6,7-Dimethoxy-2-methylamino-4-(5-phenyl-3-pyridyl)quinazoline] |
| 228 to 230 | CNc1nc(-c2cncc(Br)c2)c2cc(OC)c(OC)cc2n1 [Example 76, 4-(5-Bromo-3-pyridyl)-6,7-dimethoxy-2-methylaminoquinazoline] |
| 170 to 172 | CNc1nc(-c2cncc(-c3ccc(SC)cc3)c2)c2cc(OC)c(OC)cc2n1 [Example 77, 6,7-Dimethoxy-2-methylamino-4-[5-(4-methylthiophenyl)-3-pyridyl]quinazoline] |
